Laboratory results taken from patent US4636569A, “Pharmaceutical compositions containing compounds with a flavanone skeleton, process for the preparation of the said compound and novel compounds obtained” (Inverni Della Beffa S.p.A., priority 1983, dated 1987).
Structures can show the parent of a compound that is named as a salt.

What was measured:
[1] = Acute toxicity in mice (oral route); format: in vivo; conditions: mouse, in vivo
Excerpt: (§1) ACUTE TOXICITY (LD50 in mice (oral route)

[2] = tested on: colouring matter excreted in the bronchial liquid; experiment: Expectorant activity in mice (Nawatarih fluorescein method); format: in vivo; conditions: for ED50: Mus musculus, mice, oral, read-out: ED50 (dose capable of incrementing the excretion of the colouring matter by 50%)
Protocol: The expectorant activity of the compounds of the invention was evaluated by the method of Nawatarih (Kagoshima Daigaku Igaku Zasshi 27, 561, 1976) with fluorescein, according to which the increment of colouring matter excreted in the bronchial liquid is determined experimentally in mice. In the experiments the activity of 6,8-dimethyl-5,7,3',4'-tetrahydroxyflavanone was evaluated in comparison with that of bromhexine hydrochloride as reference standard. The results, given in Table 1, are expressed in ED50 (dose capable of incrementing the excretion of the colouring matter by 50%).

[3] = tested on: olive oil induced hyperlipaemia; experiment: Hypolipaemic activity in rats (olive oil induced hyperlipaemia); format: in vivo; conditions: for Triglycerides / NEFA: n=6, m ± ES; for Triglycerides: controls 252 ± 18; for NEFA: controls 1017 ± 39
Protocol: The hypolipaemia-producing activity was evaluated in other tests in which the variations in cholesterol, triglycerides, NEFA (non-esterified fatty acids) and various lipoprotein fractions were determined.
In Table 3 there is reported the effect of 6,8-dimethyl-5,7,4'-trihydroxyflavanone and of nicotinic acid in combatting olive oil induced hyperlipaemia in rats fasted for 16 hours. The substances under test were administered orally two hours before the lipid load and the hyperlipaemia was induced by administering orally 20 ml/kg of olive oil.
Sacrifice took place three hours after the administration of the oil.

[4] = tested on: bile flow and excretion of cholate; experiment: Choleretic activity in rats; format: in vivo; conditions: dose 200 (unit not given); for Bile flow: n=10, controls 2.72 ± 0.11, ** P < 0.01, *** P < 0.001; for Total cholate: n=10, controls 11.64 ± 0.19, ** P < 0.01
Excerpt: The choleretic activity, compared to that of catechol, has been determined in rats by measuring both the bile flow and the excretion of cholate (cholic acid).

[5] = known flavanones of extractive origin; cited from earlier work
mice = experiment: Acute toxicity in mice (oral route); format: in vivo; conditions: no deaths occurred at a dose rate of 3000 mg/kg
Excerpt: as §1

amount of expectoration = experiment: Expectorant activity in the rabbit (Perry and Boyd method); format: in vivo; conditions: Oryctolagus cuniculus, po
Protocol: The expectorant activity has also been monitored by the Perry and Boyd method (J. Pharmacol. Exp. Ther. 7 580, 1941), in which the direct amount of expectoration is determined in the rabbit.

Structure (SMILES): CN(Cc1cc(Br)cc(Br)c1N)C1CCCCC1 [Bromhexine HCl, bromhexine hydrochloride]
- LD50 [1]: 2140 mg/kg
- ED50 [2]: 51 mg/kg

Structure (SMILES): Cc1c(O)c(C)c2c(c1O)C(=O)CC(c1ccc(O)cc1)O2 (stereo not shown) [6,8-Dimethyl-5,7,4'-trihydroxyflavanone, 6,8-dimethyl-5,7,4'-trihydroxyflavanone]
- Triglycerides ([3]; 50 mg/kg os): 198 ± 7 mg/100 ml
- NEFA ([3]; 50 mg/kg os): 702 ± 23 uEq/1
- NEFA, change (in parentheses) ([3]; 50 mg/kg os, vs controls): -31
- Bile flow [4]: 5.25 ± 0.18 ml/4 h
- Total cholate [4]: 15.23 ± 0.97 mg/4 h

Structure (SMILES): Cc1c(O)c(C)c2c(c1O)C(=O)C[C@@H](c1ccc(O)cc1)O2 [farrerol]
- expectorant and mucolytic activity [5]: display expectorant and mucolytic activity

Structure (SMILES): Oc1ccccc1O [(+) Catechol, catechol]
- Bile flow [4]: 4.13 ± 0.4 ml/4 h
- Total cholate [4]: 13.03 ± 0.35 mg/4 h

Structure (SMILES): O=C1C[C@@H](c2ccc(O)c(O)c2)Oc2cc(O)cc(O)c21 [eriodictyol]
- expectorant and mucolytic activity [5]: display expectorant and mucolytic activity

Structure (SMILES): Cc1c(O)c(C)c2c(c1O)C(=O)CC(c1ccc(O)c(O)c1)O2 (stereo not shown) [6,8-dimethyl-5,7,3',4'-tetrahydroxyflavanone]
- LD0 (mice): 3000 mg/kg
- ED50 [2]: 78 mg/kg
- therapeutic index ([2]; vs bromhexine, from ED50 and acute oral toxicity in mice): distinctly more favourable than that of bromhexine
- ED50 (amount of expectoration): 200 mg/kg

Structure (SMILES): O=C(O)c1cccnc1 [Nicotinic acid, nicotinic acid]
- Triglycerides ([3]; 173 mg/kg os): 71 ± 6 mg/100 ml
- NEFA ([3]; 173 mg/kg os): 709 ± 33 uEq/1
- NEFA, change (in parentheses) ([3]; 173 mg/kg os, vs controls): -30
- Triglycerides, change (in parentheses) ([3]; 173 mg/kg os, vs controls): -72
